Measurements as given in patent publication US20250230138A1, “COMPOUNDS HAVING A T-STRUCTURE FORMED BY AT LEAST FOUR CYCLES FOR USE IN THE TREATMENT OF CANCER AND OTHER INDICATIONS” (TheRas, Inc., priority 2022, published 2025).
Read-outs that look alike come from different tables or passages of the source.

How the values were obtained:
pAKT in BT474 cells = assay: Cell-based pAKT HTRF assay in BT474 cells; conditions: BT474 cells, 4 hr incubation, read-out: pAKT inhibition IC50 in BT474 cells
Method in brief: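 9-pt curve, top 3 μM, 3-fold steps, 0.25% DMSO; 4 hr compound exposure. Lysis, then HTRF with d2/Eu Cryptate antibody pair, 4–24 h RT. Ex 320 nm, Em 615 nm.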

[1] = biological target: Cys242 in human PIK3CA (157-299) (Homo sapiens (Human), UniProt P42336); assay: Covalent modification assay using MALDI-TOF MS; assay type: biochemical; conditions: 4 h reaction time point
Sequence of Cys242 in human PIK3CA (157-299) (P42336 157-299): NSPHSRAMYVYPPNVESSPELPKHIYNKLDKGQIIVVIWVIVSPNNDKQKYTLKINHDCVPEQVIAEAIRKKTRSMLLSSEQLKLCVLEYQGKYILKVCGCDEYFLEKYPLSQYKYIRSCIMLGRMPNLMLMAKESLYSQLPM
Method in brief: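 Covalent adduct formation was read by linear-mode MALDI-TOF with sinapinic acid matrix, reported as modified-protein peak height divided by total protein peak heights. Reactions held PIK3CA (157-299) at 1 or 3.33 μM in HEPES/NaCl/MgCl2 buffer, pH 7.3, sampled after 15 min to 4 h at room temperature.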

[2] = 3.33 μM protein target, 1:7.5 protein to compound ratio (compounds 1-852)
[3] = Homo sapiens, BT-474, Compounds 10-999
[4] = 1 μM protein target, 1:5 protein to compound ratio (compounds 853-1279)

Compound	IC50 (pAKT in BT474 cells; Compounds 10-999) [nM]	% of modification [1, 2]	IC50 (pAKT in BT474 cells; [3]) [nM]	% of modification [1, 4]	IC50 (pAKT in BT474 cells; Compounds 1000-1279) [nM]
C=CC(=O)N1CCc2nc(-c3nc(-c4ccc5c(c4)CCN(C)C5)c4ccsc4c3-c3c(F)cc(F)cc3OCCOC)sc2C1 [Compound 369]	< 100	A (percent of modification of PIK3CA protein ≥75%)	–	–	–
C=CC(=O)N1CCn2nc(-c3nc(-c4ccc5oc(C)nc5c4)c4ccsc4c3-c3c(F)cc(F)cc3OCCO)cc2[C@@H]1C [Compound 654]	< 100	A (percent of modification of PIK3CA protein ≥75%)	–	–	–
C=CC(=O)N1Cc2cc(-c3nc(-c4ccc(C5(N)COC5)cc4)c4ccsc4c3-c3c(F)cc(F)cc3OC(C)C)nn2[C@@H](C)C1 [Compound 511]	< 100	A (percent of modification of PIK3CA protein ≥75%)	–	–	–
C=CC(=O)N1Cc2cc(-c3nc(-c4ccc5c(c4)CCN(C)C5)c4ccsc4c3-c3c(F)cc(F)cc3OCCOC)nn2[C@@H](C)C1 [Compound 560]	< 100	A (percent of modification of PIK3CA protein ≥75%)	–	–	–
C=CC(=O)N1CCn2nc(-c3nc(-c4ccc(N(C)C)nc4)c4ccsc4c3-c3c(F)cc(F)cc3OCCO)cc2[C@@H]1C [Compound 957, 1-((S)-2-((S)-7-(2,4-difluoro-6-(2-hydroxyethoxy)phenyl)-4-(6-(dimethylamino)pyridin-3-yl)thieno[3,2-c]pyridin-6-yl)-4-methyl-6,7-dihydropyrazolo[1,5-a]pyrazin-5(4H)-yl)prop-2-en-1-one]	–	–	< 100	A (percent of modification of PIK3CA protein ≥75%)	–
C=CC(=O)N1CCc2nc(-c3nc(-c4ccc5c(c4)CCN(CCO)C5)c4ccsc4c3-c3ccc(F)cc3OCCOC)sc2C1 [Compound 128]	< 100	A (percent of modification of PIK3CA protein ≥75%)	–	–	–
C=CC(=O)N1CCn2nc(-c3nc(-c4cnc(N5CCN(C)CC5)nc4)c4ccsc4c3-c3c(F)cc(F)cc3OCCOC)cc2[C@H]1C [Compound 951, 1-((R)-2-((S)-7-(2,4-difluoro-6-(2-methoxyethoxy)phenyl)-4-(2-(4-methylpiperazin-1-yl)pyrimidin-5-yl)thieno[3,2-c]pyridin-6-yl)-4-methyl-6,7-dihydropyrazolo[1,5-a]pyrazin-5(4H)-yl)prop-2-en-1-one]	–	–	< 100	A (percent of modification of PIK3CA protein ≥75%)	–
C=CC(=O)N1CC(n2cc(-c3nc(N4CC5CNCC5C4)c4ccsc4c3-c3ccc(F)cc3OCCOC)cn2)C1 (stereo not shown) [Compound 134]	1000 to 3000	B (50%<percent of modification <75%)	–	–	–
C=CC(=O)N1Cc2cc(-c3nc(-c4cnn(C)c4)c4ccsc4c3-c3c(F)cc(F)cc3OC(C)C)nn2C[C@H]1C [Compound 456, 1-((R)-2-((R)-7-(2,4-difluoro-6-isopropoxyphenyl)-4-(1-methyl-1H-pyrazol-4-yl)thieno[3,2-c]pyridin-6-yl)-6-methyl-6,7-dihydropyrazolo[1,5-a]pyrazin-5(4H)-yl)prop-2-en-1-one]	> 3000	D (percent of modification <25%)	–	–	–
C=CC(=O)N1CCn2nc(-c3nc(-c4ccc5c(c4)CCNC5=O)c4ccsc4c3-c3ccc(F)cc3OCCOC)cc2C1 [Compound 189, 6-[7-[4-fluoro-2-(2-methoxyethoxy)phenyl]-6-(5-prop-2-enoyl-6,7-dihydro-4H-pyrazolo[1,5-a]pyrazin-2-yl)thieno[3,2-c]pyridin-4-yl]-3,4-dihydro-2H-isoquinolin-1-one]	–	A (percent of modification of PIK3CA protein ≥75%)	< 100	–	–
C=CC(=O)N1Cc2cc(-c3nc(-c4ccc5c(c4)CNC5=O)c4ccsc4c3-c3c(F)cc(F)cc3OC)nn2C(C)C1 (stereo not shown) [Compound 910]	100 to 1000	–	–	B (50%<percent of modification <75%)	–
C=CC(=O)N1CCn2nc(-c3nc(-c4ccc5c(c4)CN(C)CC5(F)F)c4ccsc4c3-c3c(F)cc(F)cc3OC)cc2C1C (stereo not shown) [Compound 1275]	–	–	–	A (percent of modification of PIK3CA protein ≥75%)	< 100
C=CC(=O)N1CCn2nc(-c3nc(-c4ccc5c(c4)[C@@H](O)CC5)c4ccsc4c3-c3ccc(F)cc3OCCOC)cc2C1 [Compound 262]	< 100	A (percent of modification of PIK3CA protein ≥75%)	–	–	–
C=CC(=O)N1CC(n2cc(-c3nc(-c4ccc5c(c4)CNC(=O)C5)c4ccsc4c3-c3ccc(F)cc3OCCOC)cn2)C1 [Compound 72]	< 100	A (percent of modification of PIK3CA protein ≥75%)	–	–	–
C=CC(=O)N1CCn2nc(-c3nc(-c4ccc5cnn(C)c5c4)c4ccsc4c3-c3c(F)cc(F)cc3OCC(C)O)cc2C1C (stereo not shown) [Compound 677]	< 100	A (percent of modification of PIK3CA protein ≥75%)	–	–	–
C=CC(=O)N1CCc2nc(-c3nc(-c4ccc(=O)n(C)c4)c4ccsc4c3-c3c(F)cc(F)cc3OCCOC)sc2C1 [Compound 997]	< 100	–	–	A (percent of modification of PIK3CA protein ≥75%)	–
C=CC(=O)N1C[C@H](C)n2nc(-c3nc(-c4ccc5ncn(C)c5c4)c4ccsc4c3-c3c(F)cc(F)cc3OCCOC)cc2[C@@H]1C [Compound 602]	< 100	A (percent of modification of PIK3CA protein ≥75%)	–	–	–
C=CC(=O)N1CCn2nc(-c3nc(-c4ccc5c(c4)C(=O)N(C)C5)c4ccsc4c3-c3c(F)cc(F)cc3OCC(C)O)cc2C1C (stereo not shown) [Compound 878]	< 100	–	–	A (percent of modification of PIK3CA protein ≥75%)	–
C=CC(=O)N1Cc2cc(-c3nc(-c4ccc5cnn(C)c5c4)c4ccsc4c3-c3c(F)cc(F)cc3OC[C@@H](C)O)nn2C[C@H]1C [Compound 755]	< 100	A (percent of modification of PIK3CA protein ≥75%)	–	–	–
C=CC(=O)N1Cc2cc(-c3nc(-c4ccc5c(c4)CCN(C)C5)c4ccsc4c3-c3c(F)cc(F)cc3OCCO)nn2C[C@H]1C [Compound 512]	< 100	A (percent of modification of PIK3CA protein ≥75%)	–	–	–
C=CC(=O)N1CCn2nc(-c3nc(-c4ccc5nn(C)cc5c4)c4ccsc4c3-c3c(F)cc(F)cc3OCCO)cc2[C@H]1C [Compound 650]	< 100	C (25%≤percent of modification <50%)	–	–	–
C=CC(=O)N1CCc2nc(-c3nc(-c4ccn(C(F)F)c(=O)c4)c4ccsc4c3-c3c(F)cc(F)cc3OC(C)C)sc2C1 [Compound 362]	100 to 1000	A (percent of modification of PIK3CA protein ≥75%)	–	–	–
C=CC(=O)N1CCn2nc(-c3nc(-c4ccc5c(c4)NC(=O)C5)c4ccsc4c3-c3c(F)cc(F)cc3OCCOC)cc2C1C (stereo not shown) [Compound 989]	< 100	–	–	A (percent of modification of PIK3CA protein ≥75%)	–
C=CC(=O)N1CCc2cc(-c3nc(-c4cnc5c(cnn5C)c4)c4ccsc4c3-c3c(F)cc(F)cc3OCCOC)nn2CC1 [Compound 1023]	–	–	–	A (percent of modification of PIK3CA protein ≥75%)	< 100
C=CC(=O)N1CCn2nc(-c3nc(-c4cncc(C#N)c4)c4ccsc4c3-c3c(F)cc(F)cc3OC[C@@H](C)O)cc2[C@@H]1C [Compound 676]	< 100	A (percent of modification of PIK3CA protein ≥75%)	–	–	–
C=CC(=O)N1CCn2nc(-c3nc(-c4cccc(OCCN(C)C)c4)c4ccsc4c3-c3c(F)cc(F)cc3OCCO)cc2C1C (stereo not shown) [Compound 1194]	–	–	–	A (percent of modification of PIK3CA protein ≥75%)	< 100
